Active and inactive are the calls of the source.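 The calls were made as follows: active = half-maximal concentration for changing protein binding to DNA, from the fitted dose curve, below 10 micromolar; inactive = the rest.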
Each molecule was assayed against Nuclear receptor subfamily 1 group D member 1 (Homo sapiens) (UniProt P20393) (assay: Rev-erbα–DNA interaction modulators – biochemical, FITC-DNA, fluorescence polarization, dose response (AID 1259321)). Conditions: Rev-erb alpha-FITC-DNA binding.
Chain of Nuclear receptor subfamily 1 group D member 1 (Homo sapiens) (P20393 whole entry, looked up): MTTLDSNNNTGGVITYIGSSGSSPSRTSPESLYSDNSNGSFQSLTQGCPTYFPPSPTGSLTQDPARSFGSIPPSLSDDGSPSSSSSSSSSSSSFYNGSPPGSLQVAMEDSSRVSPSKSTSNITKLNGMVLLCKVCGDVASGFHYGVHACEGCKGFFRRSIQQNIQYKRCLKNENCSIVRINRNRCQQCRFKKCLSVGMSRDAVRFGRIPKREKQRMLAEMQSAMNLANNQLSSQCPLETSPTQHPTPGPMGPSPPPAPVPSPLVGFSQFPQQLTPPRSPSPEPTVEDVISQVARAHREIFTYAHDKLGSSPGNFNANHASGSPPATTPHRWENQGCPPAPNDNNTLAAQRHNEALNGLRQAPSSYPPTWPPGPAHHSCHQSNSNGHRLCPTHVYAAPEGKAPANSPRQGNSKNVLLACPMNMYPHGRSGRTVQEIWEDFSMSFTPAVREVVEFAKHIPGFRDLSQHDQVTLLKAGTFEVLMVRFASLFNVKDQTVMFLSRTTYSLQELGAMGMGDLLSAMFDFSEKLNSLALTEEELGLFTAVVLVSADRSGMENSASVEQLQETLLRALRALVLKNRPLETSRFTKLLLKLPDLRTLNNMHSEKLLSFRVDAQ
Work on COc1ccc(Cl)cc1NC(=O)c1[nH]c(C)c(C(C)=O)c1C yielded an IC50 of 6.1 µM.
N#Cc1c(-c2cccs2)cc(C2CC2)nc1SCC(N)=O gave an IC50 of 1.35 µM.
O=C(OCCN1C(=O)c2cccc3c(N4CCOCC4)ccc(c23)C1=O)c1ccc(Cl)cc1Cl was tested, and the IC50 was > 40 µM (inactive).
For CC(=O)c1cnc2c(-c3cccc(Br)c3)cnn2c1C, the IC50 was > 40 µM (inactive).
For CCOC(=O)Cn1c(=NC(=O)c2cccs2)sc2cc(C(=O)OC)ccc21, the IC50 was “inactive”.
In the case of CC1(C)Cc2c(sc3c2c(N)nc(=S)n3Cc2ccc(Br)cc2)CO1, the IC50 is reported as “inactive”.
COc1ccccc1CC1(C)C(=O)Nc2ccc(OC(F)(F)F)cc21 (stereo not given) was tested, and the IC50 was > 40 µM (inactive).
Cc1cccc(C)c1NC(=O)COc1ccccc1C(=O)Nc1ccc(Br)cn1 was tested, and the IC50 was 4.34 µM.
Work on Cc1n[nH]c(C)c1N1C(=O)c2cccc3c(N4CCCCCC4)ccc(c23)C1=O yielded an IC50 of 3.61 µM.
Work on Cc1cc(C)c2cc(C#N)c(SCC(=O)Nc3ccc4c(c3)OCO4)nc2c1 yielded an IC50 of 7.14 µM.
COc1ccc(-c2cc(C3CC3)nc(SCC(=O)c3cccs3)c2C#N)cc1 was tested, and the IC50 was 6.69 µM.
In the case of OCC[n+]1ccc(/C=C/c2c[nH]c3ccccc23)cc1, the IC50 is reported as > 40 µM (inactive).
Cc1ccc(Oc2nccc(-c3ccc(Cl)cc3)n2)cc1 was tested, and the IC50 was 7.31 µM.
With Cc1ccc(-c2nn(C)c(=O)c3ccccc23)cc1S(=O)(=O)N1CCCC1 the IC50 was > 40 µM (inactive).
In the case of CCC(=O)N=c1sc2c(OC)ccc(OC)c2n1C, the IC50 is reported as 2.98 µM.
Cc1cc(=O)oc2cc(OCC3CC(c4ccc(Cl)cc4)=NO3)ccc12 (stereo not given) was tested, and the IC50 was 8.95 µM.
COc1cc2c(cc1OC)-c1cc3ccc4c(c3c[n+]1CC2)OCO4 was tested, and the IC50 was “inactive”.
In the case of CNC(=O)c1ccsc1NC(=O)c1sc2ccccc2c1Cl, the IC50 is reported as “inactive”.
CCn1cc(C(=O)NCCc2ccccc2C)c(=O)c2ccc(C)nc21 was tested, and the IC50 was 1.16 µM.
O=C(CSc1ncnc2c1sc1ccccc12)Nc1ccc(Br)cc1 gave an IC50 of 2.97 µM.
For N#Cc1c(N)nc(SCC(=O)C23CC4CC(CC(C4)C2)C3)c(C#N)c1-c1ccc(Cl)cc1, the IC50 was > 40 µM (inactive).
COc1ccc(CCNC(=O)CSc2nc(-c3ccc(OC)c(OC)c3)ccc2C#N)cc1 was tested, and the IC50 was “inactive”.
With COc1ccc(-c2cc(-c3ccc(C)cc3)nc(SCc3nnc(-c4ccccc4)o3)c2C#N)cc1OC the IC50 was 8.78 µM.
With CC(=O)c1ccccc1NC(=O)c1cc(S(=O)(=O)N2CCOCC2)ccc1N1CCCC1 the IC50 was 4.33 µM.
COc1ccc(-n2nc(C(=O)NCC(=O)Nc3cc(Cl)c(OC)cc3OC)c3ccccc3c2=O)cc1 was tested, and the IC50 was “inactive”.
Molecule O=C(Nc1nnc(SCc2ccccc2)s1)c1cc2c(s1)CCCC2 has an IC50 of 2.33 µM.
For CCOC(=O)CC(=O)CSc1nc(-c2ccc3c(c2)OCO3)cc(C(F)(F)F)c1C#N, the IC50 was “inactive”.
CN(C)c1ccc(C=C2SC(=S)NC2=O)cc1 was tested, and the IC50 was “inactive”.
With COC(=O)c1ccc(N/C=C\C(=O)c2ccc3c(c2)OCO3)cc1 the IC50 was 7.08 µM.
In the case of Cc1cnc(NC(=O)c2cc3c(C)nn(-c4ccccc4)c3s2)s1, the IC50 is reported as 3.83 µM.
With CCCCN1C(=O)/C(=C/C=C2/CC(C)(C)CN2C)SC1=S the IC50 was > 40 µM (inactive).
In the case of CN(c1ccc(O)cc1)c1ccc([N+](=O)[O-])c2nonc12, the IC50 is reported as 6 µM.
In the case of Oc1ccccc1-c1nc(NCc2ccccc2)c2ccccc2n1, the IC50 is reported as > 40 µM (inactive).
With O=C(CCc1c[nH]c2ccccc12)NCCc1ccc(Cl)cc1 the IC50 was > 40 µM (inactive).
Work on CCOC(=O)CSc1nc2cc(OCC)ccc2cc1C#N yielded an IC50 of 6.06 µM.
For CN1C(=O)C(=Cc2ccc(N3CCCCC3)o2)C(=O)N(C)C1=S, the IC50 was “inactive”.
With O=C(N=c1ccn(-c2nc3ccccc3nc2NS(=O)(=O)c2ccccc2)cc1)c1cccs1 the IC50 was “inactive”.
With Cc1ccc2[nH]c(C)c(/C=C/c3cc[n+](C)cc3)c2c1 the IC50 was 8.6 µM.
With COc1ccc(NC(=O)c2sc3nc(N4CCCC4)c4c(c3c2N)CC(C)(C)OC4)cc1 the IC50 was > 40 µM (inactive).
CN(CC(=O)Nc1ccc(Cl)cc1)S(=O)(=O)c1ccc2c(c1)n(C)c(=O)c(=O)n2C was tested, and the IC50 was 5.44 µM.
COCCN1C(=O)/C(=C/c2ccc(N3CCCC3)cc2C)SC1=S was tested, and the IC50 was 6.19 µM.
With CC(=O)Nc1ccc(O)c(-c2nc3ccccc3s2)c1 the IC50 was “inactive”.
CCC(=O)c1ccc(N2CCN(S(=O)(=O)c3ccccc3)CC2)c(F)c1 was tested, and the IC50 was 2.96 µM.
For COc1ccc2[nH]c(C(=O)Nc3ccc(F)cc3Br)cc2c1, the IC50 was > 40 µM (inactive).
With O=C(NCc1ccc2c(c1)OCO2)C1CCC(CNS(=O)(=O)c2cccc3nsnc23)CC1 (stereo not given) the IC50 was > 40 µM (inactive).
CC1(C)Cc2c(c(N3CCCC3)nc3sc(C(=O)Nc4ccccc4)c(N)c23)CO1 showed an IC50 of 3.37 µM.
With Cc1ccc(-c2csc3nc[nH]c(=S)c23)cc1C the IC50 was 2.1 µM.
CC[n+]1c(/C=C/c2c[nH]c3ccccc23)ccc2cc(C)ccc21 was tested, and the IC50 was “inactive”.
In the case of Cc1cc(C)c(N=C2SCC(=O)N2Cc2ccco2)c(C)c1, the IC50 is reported as 7.22 µM.
CCOc1cc(N(CC)CC)ccc1/C=C(/C#N)c1nc2ccccc2[nH]1 was tested, and the IC50 was “inactive”.
With CCCCCCNC(=O)C(C#N)c1nc2ccccc2nc1N1CCOCC1 (stereo not given) the IC50 was > 40 µM (inactive).
For C=CCOc1ccc(/C(O)=C2\C(=O)C(=O)N(CCN(C)C)C2c2cccs2)cc1 (stereo not given), the IC50 was 7.38 µM.
With C=CCn1cc(/C=C/c2cc[n+](C)cc2)c2ccccc21 the IC50 was > 40 µM (inactive).
In the case of COc1cccc(NC(=O)CSc2nc3ncc(Br)cc3[nH]2)c1, the IC50 is reported as 1.3 µM.
For CCCCN1C(=O)/C(=C/C=C2\SCCN2C)SC1=S, the IC50 was 3.18 µM.
In the case of O=C(N=c1ccn(-c2nc3ccccc3nc2NS(=O)(=O)c2ccc(Cl)cc2)cc1)c1cccs1, the IC50 is reported as > 40 µM (inactive).
For COc1ccc(CN(Cc2cc3cc(OC)c(OC)cc3[nH]c2=O)C(=O)NC2CCCCC2)cc1, the IC50 was 3.44 µM.
C#CCn1c(=NC(=O)c2ccc(Br)s2)sc2cccc(OC)c21 showed an IC50 of 2.4 µM.
O=C(COC(=O)c1sc2ccccc2c1Cl)Nc1ncc(Cl)cc1Cl was tested, and the IC50 was > 40 µM (inactive).
Work on Cc1ccc(NC(=S)Nc2nc(CC(=O)Nc3ccccc3)cs2)cc1 yielded an IC50 of 3.84 µM.
For COc1cccc(-c2nc(CS(=O)(=O)CC(=O)NCc3ccc(Cl)cc3)c(C)o2)c1, the IC50 was > 40 µM (inactive).
In the case of O=C(CSc1ncnc2c1oc1ccccc12)Nc1ccc2c(c1)OCCO2, the IC50 is reported as > 40 µM (inactive).
COc1ccc(-c2c(C#N)c(N)nc(Sc3ccc(Cl)cc3)c2C#N)cc1 showed an IC50 of 3.66 µM.
CSc1nnc(N2C(=O)C(O)=C(C(=O)c3ccco3)C2c2cccc(Cl)c2)s1 (stereo not given) was tested, and the IC50 was “inactive”.
With CCN1C(=O)CSC1=NC12CC3CC(CC(C3)C1)C2 the IC50 was > 40 µM (inactive).
For CCOc1cc2[nH]c(=S)n(CCC(=O)N3CCc4ccccc4C3)c(=O)c2cc1OCC, the IC50 was “inactive”.
In the case of CCOC(=O)c1c(C2CC2)csc1NC(=O)COC(=O)c1cnc(Cl)c(Cl)c1, the IC50 is reported as “inactive”.
For Cc1ccccc1NC(=O)c1sc(NC(=O)COc2ccccc2)c(C#N)c1C, the IC50 was > 40 µM (inactive).
With COC(=O)c1ccc(CSc2ncnc3c2oc2ccccc23)o1 the IC50 was 2.73 µM.
For COc1ccc2c(C)cc(SCC(=O)NC3CCCCC3)nc2c1, the IC50 was > 40 µM (inactive).
For COc1cccc(C(=O)n2ccc3ccc(-c4ccc5ccn(C(=O)c6cccc(OC)c6)c5c4)cc32)c1, the IC50 was 3.26 µM.
With CCOc1ccc2cc(C#N)c(SCC(=O)OC)nc2c1 the IC50 was 3.74 µM.
COc1ccc(-c2ccc3c(c2)c(Sc2ccccc2)c(-c2cc(OC)cc(OC)c2)n3C)cc1 was tested, and the IC50 was 6.89 µM.
With COc1ccc(C(=O)Cn2cnc3ccc(Cl)cc3c2=O)cc1F the IC50 was 5 µM.
In the case of Cc1nonc1NC(=O)CSc1nc2ccccc2cc1C#N, the IC50 is reported as “inactive”.
In the case of COc1ccc(/C=C/C(=O)NC(=S)N2CCN(c3ccccc3OC)CC2)cc1, the IC50 is reported as 1.65 µM.
O=S(=O)(c1ccc2nc(N3CCN(c4ccccc4F)CC3)ccc2c1)N1CCCCC1 gave an IC50 of 0.838 µM.
In the case of O=c1c2ccccc2nc2sc3ccccc3n12, the IC50 is reported as > 40 µM (inactive).
For COc1ccc(Cl)cc1CC1(C)C(=O)Nc2ccc(-c3ccccc3OC)cc21 (stereo not given), the IC50 was 3.44 µM.
With Cc1cc(/C=C(/C#N)C(=O)Nc2ccc(Cl)cc2)c(C)n1-c1cccnc1 the IC50 was 2.66 µM.
With CCN(CC)c1ccc(/C=C(\C#N)C(N)=S)cc1 the IC50 was “inactive”.
O=C(/C=C/c1cccc2ccccc12)NCCC1=CCCCC1 was tested, and the IC50 was > 40 µM (inactive).
With COc1ccc(NC(=O)CSc2nc(N)c(C#N)cc2C#N)cc1 the IC50 was 5.76 µM.
In the case of NS(=O)(=O)c1ccc(CCn2c(=S)[nH]c3ccc(F)cc3c2=O)cc1, the IC50 is reported as > 40 µM (inactive).
For Cc1cc(-c2csc3nc[nH]c(=S)c23)cc(C)c1C, the IC50 was 5.33 µM.
N#Cc1ccccc1N1CCN(C(=O)C2CCN(c3ncnc4c3sc3cccc(F)c34)CC2)CC1 showed an IC50 of 4.47 µM.
In the case of COc1cc2oc(=O)cc(-c3ccc(-c4ccc(CO)cc4)cc3)c2c(OC)c1OC, the IC50 is reported as 5.84 µM.
Molecule Cc1cccc(N2CCN(c3ccc4cc(S(=O)(=O)N5CCCCC5)ccc4n3)CC2C)c1 (stereo not given) has an IC50 of 4.89 µM.
O=C1c2cccc3c(N4CCCCC4)ccc(c23)C(=O)N1CCO was tested, and the IC50 was “inactive”.
With COc1cc(NC(=O)CCn2c(=S)[nH]c3ccccc3c2=O)cc(OC)c1OC the IC50 was “inactive”.
In the case of COc1ccc(Cl)cc1C(=O)Nc1cccc(-c2ccc3nncn3n2)c1, the IC50 is reported as 7.26 µM.
With CCC(C)(C)c1ccc(OCCCC[n+]2cccc(C)c2)c(C(C)(C)CC)c1 the IC50 was 4.39 µM.
For CCN1/C(=C/c2ccc3cccc(C)c3[n+]2CC)Sc2ccccc21, the IC50 was 2.04 µM.
For COc1cccc(NC(=O)CSc2ncnc3c2oc2ccccc23)c1, the IC50 was > 40 µM (inactive).
In the case of CC(OC(=O)c1cc2c(ccc3ccccc32)oc1=O)c1nc2ccccc2s1 (stereo not given), the IC50 is reported as “inactive”.
Cc1ccc(-n2c(SCC(=O)Nc3cccc(C)c3)nc3c(oc4ccccc43)c2=O)cc1 was tested, and the IC50 was 2.18 µM.
In the case of CCn1cc(C2N3CC4(C)CN2CC(C)(C3)C4=O)c2ccccc21 (stereo not given), the IC50 is reported as 2.83 µM.
In the case of CCCCCn1c(=O)c(C(=O)Nc2ccccc2Cl)c(O)c2ccccc21, the IC50 is reported as > 40 µM (inactive).
With Cn1cc(/C=C/c2cc[n+](C)cc2)c2cc(Cl)ccc21 the IC50 was > 40 µM (inactive).
Molecule N#Cc1cc(C#N)c(N2CCN(c3cccc(Cl)n3)CC2)nc1N has an IC50 of 5.79 µM.
With CCOc1ccc2nc(SCC(=O)N3c4ccccc4Sc4ccccc43)c(C#N)cc2c1 the IC50 was 6.88 µM.
In the case of CCCCCCCn1c(=O)c(C(=O)Nc2cnccn2)c(O)c2ccccc21, the IC50 is reported as “inactive”.
Work on CC(=O)c1ccc(N2CCN(c3ccc4cc(S(=O)(=O)N5CCC(C)CC5)ccc4n3)CC2)cc1 yielded an IC50 of 8.62 µM.
For O=c1c2ccccc2nc2sc(Nc3cccc(Cl)c3)nn12, the IC50 was 3.87 µM.
Cc1cccc(N2C(=O)c3cccc4c(N)ccc(c34)C2=O)c1 was tested, and the IC50 was 6.19 µM.

— PubChem BioAssay AID1259321 (Sanford-Burnham Center for Chemical Genomics, 2017)
